Experimental findings from article PMC6984732, “Thymidine phosphorylase and prostrate cancer cell proliferation inhibitory activities of synthetic 4-hydroxybenzohydrazides: In vitro, kinetic, and in silico studies” (PLoS ONE, 2020) are described below.

In assay [1] the target is T1, thymidine phosphorylase (TP) (Escherichia coli, UniProt P07650).
T1 construct: purchased Sigma Aldrich, USA; host or cells: E. coli
The experiment in a line: Thymidine phosphorylase inhibition assay (spectrophotometric, 290 nm). It is filed as biochemical, E. coli. The note with it: for inhibition: read-out: Percent Inhibition of thymidine phosphorylase, 10 μL of test compound (0.5 mM in dimethylsulfoxide) per well, <50% regarded inactive; for IC50: recombinant TP expressed in E. coli, substrate thymidine, pH 7.0, 30°C, N.A. = not active, read-out: IC50 (μM ± SEM), thymidine phosphorylase inhibition. The method, then: Since human TP is not commercially available, we used commercially available recombinant TP (expressed in E. coli) enzyme. Primary sequence of TP is mostly conserved throughout the evolution and mammalian TP share 39% sequence similarity with TP of E. coli. The mammalian enzyme also shares 65–70% similarity with the active site residues of E. coli TP enzyme.
Assay for TP inhibition was performed spectrophotometrically, following the method of Bera et al. with some modifications. Enzyme TP catalyzed the reversible phosphorolysis of thymidine to thymine and 2-deoxyribose-1-phosphate. Reaction mixture contained 150 μL of potassium phosphate buffer (pH 7.0, 50 mM), 20 μL of enzyme (0.058 U/well), and 10 μL of test compound (0.5 mM in dimethylsulfoxide). The reaction mixture was incubated for 10 min at 30°C. 20 μL of substrate (1.5 mM) was then added and change in absorbance was recorded after every minute for a total time period of 10 minutes at 290 nm in ELISA plate reader (Spectra Max-340, Molecular Devices, CA, USA).
We have used the 96-well UV-plates, purchased from Corning (Catalogue No. COSTAR 3635, Lot No. 00912050). […] We then added the substrate (thymidine), and recorded the final readings.

Assay [2] has as its target T1, thymidine phosphorylase (TP). The assay can be described thus: Kinetic studies on thymidine phosphorylase (Lineweaver-Burk, secondary re-plot, Dixon plot). In kind it is biochemical, E. coli. The note with it: thymidine as variable substrate; for Inhibition Type: from Lineweaver-Burk plot; for Ki: secondary re-plot of Lineweaver-Burk plot, reconfirmed by Dixon plot, read-out: Ki (μM ± SEM). As for the experimental part: Kinetic studies were carried out to identify the mechanism of inhibition by these compounds. Inhibitor could bind with the enzyme in multiple ways, such as in competitive, non-competitive, mixed or uncompetitive way. In kinetic assay, the enzyme (0.058 U/200 μL) was incubated with different concentrations of inhibitor for 10 min at 30°C. The reaction was then initiated by adding different concentrations (0.1875–1.5 mM) of substrate (thymidine), and the resulting degradation of thymidine was measured continuously at 290 nm for 10 min on ELISA plate reader. Every experiment was run in triplicate.
Lineweaver-Burk plot was plotted to determine the type of inhibition. This was accomplished by plotting the reciprocal of the rate of reaction against the reciprocal of the substrate concentration. Ki values were determined by secondary re-plot of Lineweaver-Burk plot, and reconfirmed by Dixon plot.

In assay [3] the test system is mouse fibroblast (3T3) cells. The experiment in a line: MTT anti-proliferative (cytotoxicity) assay, 3T3 cells. In kind it is cell-based. Particulars: NIH3T3, 48 h incubation, mouse fibroblast normal cell line, read-out: IC50 ± Standard Deviation, 3T3 Cell Line. As for the experimental part:
(§1) Anti-proliferative activity of active compounds was evaluated by using the standard MTT (3-[4,5-dimethylthiazole-2-yl]-2,5-diphenyl-tetrazolium bromide) colorimetric assay in 96-well plate.
(§2) It is a colorimetric assay that measures the reduction of MTT by mitochondrial enzyme i.e. succinate dehydrogenase. The MTT enters into the mitochondria of cell, where it is reduced to an insoluble formazan salt. As reduction of MTT can only occur in metabolically active cells, the level of activity is actually a measure of the viability of the cells.
(§3) Mouse fibroblast normal cell line 3T3, and prostate cancer line (PC3) were cultured separately in DMEM, supplemented with 5% of FBS, 100 IU/mL of penicillin and 100 μg/mL of streptomycin, and kept at 37°C in 5% CO2 incubator. For the preparation of cell culture, 100 μL/well of cell solution (5 x 10^4 cells/mL) was added into 96-well plate. The plate was incubated for overnight, and fresh medium was added after the removal of old medium. The test compounds were also added in different concentrations into the plate, and again incubated for 48 h. After the completion of this incubation period, 200 μL MTT (0.5 mg/mL) was added, and plate was again incubated for 4 h, after this final incubation, 100 μL of DMSO was added to each well. The level of MTT reduction to formazan was evaluated by change in absorbance at 540 nm for 3T3, and 570 nm for PC3 using a micro-plate reader (Spectra Max plus, Molecular Devices, CA, USA).

Assay [4] has as its system prostate cancer (PC3) cells. The experiment in a line: MTT anti-proliferative assay, PC3 cells. In kind it is cell-based. The note with it: Homo sapiens, PC-3, 48 h incubation, prostate cancer cell line, read-out: IC50 ± Standard Deviation, PC3 Cell Line. As for the experimental part:
as §1, §2, §3
For orientation: Tetrazolium dyes change colour on reduction, which living cells bring about.

T1 sequence (P07650 whole entry): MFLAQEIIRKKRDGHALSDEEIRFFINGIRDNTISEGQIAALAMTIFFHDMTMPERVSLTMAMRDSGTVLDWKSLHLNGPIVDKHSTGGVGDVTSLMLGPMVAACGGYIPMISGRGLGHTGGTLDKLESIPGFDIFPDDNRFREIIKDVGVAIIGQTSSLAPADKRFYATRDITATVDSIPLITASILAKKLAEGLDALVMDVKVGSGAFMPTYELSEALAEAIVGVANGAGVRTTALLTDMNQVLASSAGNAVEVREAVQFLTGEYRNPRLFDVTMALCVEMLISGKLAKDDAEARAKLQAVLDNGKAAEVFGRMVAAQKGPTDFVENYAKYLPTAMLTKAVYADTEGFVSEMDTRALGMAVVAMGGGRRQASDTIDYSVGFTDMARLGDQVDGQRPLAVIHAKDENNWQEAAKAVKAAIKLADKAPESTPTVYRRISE

For the molecule `O=C(NN=Cc1ccc(Cl)cc1)c1ccc(O)cc1` [Compound 9, N'-[(E)-(4^′-Chlorophenyl)methylidene]-4-hydroxylbenzohydrazide], in assay [1], the inhibition amounted to 99%. Also, the values for the IC50 in assay [1], in assay [3] and in assay [4] were 159 ± 0.4 µM, > 30 µM and > 30 µM, respectively. The “Inhibition Type” value in assay [2] is “Uncompetitive”. Further, the Ki in assay [2] was found to be 138 ± 0.009 µM.

On to `O=C(N/N=C/c1ccc(Br)cc1)c1ccc(O)cc1` [Compound 14, N'-[(E)-(4^′-Bromophenyl)methylidene]-4-hydroxylbenzohydrazide], for which the inhibition in assay [1] was 96.6%. Further, the “Inhibition Type” value in assay [2] is “Uncompetitive”. The IC50 in assay [3] and in assay [4] was > 30 µM in each case.

For `O=C(NN=Cc1cc(Br)cc(Br)c1O)c1ccc(O)cc1` [Compound 22, N'-[(E)-(3^′,5^′-Dibromo-2^′-hydroxylphenyl)methylidene]-4-hydroxylbenzohydrazide], in assay [1], the inhibition came to 99.9% and the IC50 was 6.8 ± 0.7 µM. Further, in assay [2], the “Inhibition Type” value was “Non-competitive” and the Ki is 1.75 ± 0.009 µM. Moreover, the IC50 in assay [3] amounted to 9.2 ± 0.1 µM. Besides, the IC50 in assay [4] came out at 8.3 ± 0.9 µM.

For the molecule `C/C(=N\NC(=O)c1ccc(O)cc1)c1c(O)cccc1O` [Compound 27, N'-[(E)-1-(2^′,6^′-Dihydroxylphenyl)ethylidene]-4-hydroxylbenzohydrazide], the inhibition in assay [1] worked out at 93%. Also, in assay [2], the “Inhibition Type” value is “Uncompetitive”. Also, the half-maximal inhibitory concentration (IC50) is 26.7 ± 1 µM in assay [3] and > 30 µM in assay [4].

For `CC/C(=N\NC(=O)c1ccc(O)cc1)c1cc(O)ccc1O` [Compound 29, N'-[(E)-1-(2^′,5^′-Dihydroxylphenyl)propylidene]-4-hydroxylbenzohydrazide], the inhibition in assay [1] amounted to 99%. Moreover, the values for the IC50 in assay [1], in assay [3] and in assay [4] were 173 ± 1.4 µM, 19.5 ± 0.9 µM and > 30 µM, respectively. Further, the “Inhibition Type” value in assay [2] was “Uncompetitive”.

A word on the inhibition: it is the percentage by which the read-out fell short of the control. As usually defined, the IC50 is the point on the concentration scale where inhibition reaches its midpoint. As usually defined, the Ki is a dissociation constant, usually derived from enzyme kinetics or from competition with a known ligand.
